Test system: platelets in fresh anticoagulated human blood
Assay: impedance-based micro platelet function test with microfabricated 3D electrodes in a microfluidic channel
Format: cell-based
Conditions: 100 μM ADP; human blood with Calcium Chloride and 10 μM PPACK; flow rate 25 μL/min; six frequencies 20 Hz to 2 MHz; logged for 2000 s; FIG. 16
Description: Although not shown explicitly, electrodes of different heights (125 μm, 250 μm), diameters (100 μm, 250 μm, 500 μm), and gaps in-between electrodes (500 μm, 1000 μm) were fabricated using the same process. Pairs of 3D electrodes where each electrode comprises a number of electrically connected metal-coated cylindrical cores arranged in a grid were also fabricated. […] Wires soldered to the patterned metal pads on the substrates were used to connect the 3D electrodes to an Agilent E4980A LCR meter. FIG. 16 show a set 1600 of experimental data using electrodes fabricated according to the process discussed above. 1 mL of fresh anticoagulated human blood, obtained within 4 hrs of use, was mixed with 65 μL of 100 mg/mL Calcium Chloride and 10 μM of D-Phenylalanyl-prolyl-arginyl chloromethyl ketone (PPACK). […] The impedance of the electrodes was continuously monitored and logged at six different frequencies (20 Hz, 200 Hz, 1 kHz, 15 kHz, 200 kHz, 2 MHz) using a custom MATLAB program running on a computer interfaced to the LCR meter. […] The peak impedance values reached or the areas under the impedance-time curves or other measures from these curves may be analyzed and interpreted as indications of platelet activity in response to the modifying reagent added (e.g. ADP). […]

**Q.** With Nc1ncnc2c1ncn2[C@@H]1O[C@H](COP(=O)(O)OP(=O)(O)O)[C@@H](O)[C@H]1O [ADP, adenosine diphosphate] as the compound, how does the “change in electrode impedance after addition of platelet activation reagent” value read?
**A.** increase in electrode impedances at all frequencies

Reference: patent US20200055044A1, “METHODS AND SYSTEMS FOR MICRO PLATELET FUNCTION TESTING USING AN INTEGRATED MINIATURIZED PLATELET FUNCTION ANALYZER” (Atantares Corp., priority 2016, published 2020)
